Measured values: publication PMC11501026, “L-Arginine and asymmetric dimethylarginine (ADMA) transport across the mouse blood-brain and blood-CSF barriers: Evidence of saturable transport at both interfaces and CNS to blood efflux” (PLOS ONE, 2024)
“And” between values parts separate entries of the source, which are not always exact repeats. Equal values may be shown once. Read-outs that look alike come from different tables or passages of the source.

Legend:
Type in all cases: in vivo, mouse
[1] = capillary depletion analysis after in situ brain perfusion; parameters: [3H] ADMA and [14C] Sucrose uptake, homogenate / Difference (ADMA minus Sucrose), homogenate / [3H] ADMA and [14C] Sucrose uptake, supernatant / Difference (ADMA minus Sucrose), supernatant / uptake, homogenate / uptake, supernatant: unit not given here; settings: for Kp at 30 min: other: in situ brain perfusion with artificial plasma
Experimental: The microvasculature within a sample of brain tissue can be separated from the brain parenchyma using capillary depletion analysis. Following perfusion, the remaining brain tissue after microdissection of the regions described above (typically 200–300 mg) underwent capillary depletion following a method modified for mouse. […]

[2] = self-inhibition, in situ perfusion: [^3H]-arginine with 100 μM unlabelled L-arginine; settings: male, Balb/c, mouse, other: in situ brain perfusion, with 100 µM unlabelled L-arginine, +100uM Un-labelled arginine, 10 mins, Balb/c ♂, 5ml/min
Experimental: (§1) Self-inhibition experiments were also performed. […] Cross-competition experiments were also performed.
(§2) The percentage change in the RTissue uptake values achieved in the absence or presence of an unlabelled inhibitor can be calculated by means of Eq 4.
(§3) %change=RTissue−RInhibition/RTissue×100 Eq 4
(§4) We define RInhibition as the RTissue uptake in the presence of an inhibitor in the artificial plasma.
(§5) A decrease in the uptake of radiolabelled solute in the presence of unlabelled inhibitor is indicative of a saturable influx transport system. Conversely, an increase in the uptake of radiolabelled solute in the presence of unlabelled inhibitor is indicative of a saturable efflux transport system.

[3] = test system: [^3H]-arginine transport across the blood-brain and blood-CSF barriers; experiment: as above; settings: +100uM Un-labelled arginine, 10 mins, Balb/c ♂, 5ml/min; single mouse
Experimental: as §1, §2, §3, §4, §5

[4] = cross-inhibition, in situ perfusion: [^3H]-arginine with 0.5–500 μM unlabelled ADMA; settings: male, mouse, 10 mins, Balb/c ♂, 5ml/min
Experimental: as §1, §2, §3, §4, §5
Concentrations of ADMA were specifically selected to mimic plasma concentrations under normal conditions (0.5 μM), pathophysiological conditions (3.0 μM), and then supraphysiological concentrations (10, 100 and 500 μM).

## OC[C@H]1O[C@@](CO)(O[C@H]2O[C@H](CO)[C@@H](O)[C@H](O)[C@H]2O)[C@@H](O)[C@@H]1O [[^14C]-sucrose, reference compound]
[1]; 2.5 mins, Balb/c ♂, 5ml/min, individual mouse
  [3H] ADMA and [14C] Sucrose uptake, supernatant: 0.005063
[1]; [3H] ADMA + [14C] Sucrose, 30 mins, Balb/c ♂, 5ml/min, individual mice
  uptake, pellet: 0.004118 and 0.004644 and 0.005073
[1]; male, BALB/c, mouse, capillary depletion pellet (endothelial cell-enriched), [3H] ADMA and [14C] Sucrose uptake, pellet, 20 mins, 5ml/min, mean
  Kp at 20 min, 62.5 nM: 0.00274
[1]; male, BALB/c, mouse, capillary depletion pellet (endothelial cell-enriched), pellet: [14C] Sucrose, 30 mins, Balb/c ♂, 5ml/min, single mouse
  Kp at 30 min: 0.00943
[1]; male, BALB/c, mouse, capillary depletion supernatant (brain parenchyma), [3H] ADMA and [14C] Sucrose uptake, supernatant, 2.5 mins, 5ml/min, mean
  Kp at […]: 0.0098
[1]; male, BALB/c, mouse, endothelial cell-enriched pellet (capillary depletion), [3H] ADMA and [14C] Sucrose uptake, pellet, 2.5 mins, 5ml/min, mean
  Kp at […]: 0.00237
[1]; male, BALB/c, mouse, endothelial cell-enriched pellet (capillary depletion), other: in situ brain perfusion, [3H] ADMA + [14C] Sucrose, 30 mins, Balb/c ♂, 5ml/min, individual mice, read-out: uptake, pellet
  Kp at 30 min, 62.5 nM: 0.00308
[1]; male, BALB/c, mouse, endothelial cell-enriched pellet (capillary depletion), other: in situ brain perfusion, [3H] ADMA + [14C] Sucrose, 30 mins, Balb/c ♂, 5ml/min, mean, read-out: uptake, pellet
  Kp at 30 min, 62.5 nM: 0.00455
[1]; male, BALB/c, mouse, endothelial cell-enriched pellet (capillary depletion), pellet, 2.5 mins, uncorrected, given as fraction, read-out: tissue or CSF to plasma ratio (mean)
  Kp at […]: 0.00218
[1]; male, BALB/c, mouse, endothelial cell-enriched pellet (capillary depletion), pellet, 10 mins, uncorrected, given as fraction, read-out: tissue or CSF to plasma ratio (mean)
  Kp at 10 min: 0.00461
[1]; male, BALB/c, mouse, whole-brain homogenate (capillary depletion), homogenate: [14C] Sucrose, 30 mins, Balb/c ♂, 5ml/min, mean
  Kp at 30 min: 0.0653
[1]; male, BALB/c, mouse, whole-brain homogenate (capillary depletion), other: in situ brain perfusion, [3H] ADMA + [14C] Sucrose, 30 mins, Balb/c ♂, 5ml/min, mean, read-out: uptake, homogenate
  Kp at 30 min, 62.5 nM: 0.0336
[1]; male, BALB/c, mouse, whole-brain homogenate (capillary depletion), other: in situ brain perfusion, [3H] ADMA and [14C] Sucrose uptake, homogenate, CONTROL, 10 mins, Balb/c ♂, 5ml/min, mean
  Kp at 10 min, 62.5 nM: 0.0971
[1]; male, Balb/c, mouse, endothelial cell-enriched pellet after capillary depletion, other: in situ brain perfusion, with unlabelled ADMA 3 µM, Arginine / Sucrose uptake, pellet, mean, [3H] Arginine + [14C] Sucrose + 3 uM ADMA, 10 mins, Balb/c ♂, 5ml/min, mean
  Kp at 10 min: 0.00326
[1]; male, Balb/c, mouse, endothelial cell-enriched pellet after capillary depletion, other: in situ brain perfusion, with unlabelled ADMA 10 µM, Arginine / Sucrose uptake, pellet, mean, [3H] Arginine + [14C] Sucrose + 10 uM ADMA, 10 mins, Balb/c ♂, 5ml/min, mean
  Kp at 10 min: 0.00425
[1]; male, Balb/c, mouse, endothelial cell-enriched pellet, other: in situ brain perfusion, with unlabelled ADMA 100 µM, Arginine / Sucrose uptake, pellet, mean, [3H] Arginine + [14C] Sucrose + 100µM un-labelled ADMA, 10 mins, Balb/c ♂, 5ml/min, mean
  Kp at 10 min: 0.00383
[1]; male, Balb/c, mouse, supernatant (brain parenchyma) after capillary depletion, other: in situ brain perfusion, with unlabelled ADMA 3 µM, Arginine / Sucrose uptake, supernatant, mean, [3H] Arginine + [14C] Sucrose + 3 uM ADMA, 10 mins, Balb/c ♂, 5ml/min, mean
  Kp at 10 min: 0.0159
[1]; male, Balb/c, mouse, supernatant (brain parenchyma), other: in situ brain perfusion, with unlabelled ADMA 100 µM, Arginine / Sucrose uptake, supernatant, [3H] Arginine + [14C] Sucrose + 100µM un-labelled ADMA, 10 mins, Balb/c ♂, 5ml/min, single mice
  Kp at 10 min: 0.0158
[2]; pellet, pellet: [14C] Sucrose, mean
  Kp at 10 min: 0.00699
[2]; pituitary gland, pituitary gland: [14C] Sucrose, mean
  Kp at 10 min: 0.151
[2]; pons, pons: [14C] Sucrose, mean
  Kp at 10 min: 0.0326
[2]; supernatant, supernatant: [14C] Sucrose, single mouse
  Kp at 10 min: 0.0159
[3]
  pellet: [14C] Sucrose: 0.001001 and 0.002262 and 0.003661 and 0.002471 and 0.002325
[4]; BALB/c, other: in situ brain perfusion with artificial plasma, with unlabelled ADMA 500 µM, [3H] Arginine and [14C] Sucrose uptake, pellet, + 500µM un-labelled ADMA, mean
  Kp at 10 min: 0.00271
[4]; BALB/c, thalamus, other: in situ brain perfusion with artificial plasma, with unlabelled ADMA 500 µM, [3H] Arginine and [14C] Sucrose uptake, thalamus, + 500µM un-labelled ADMA, mean
  Kp at 10 min: 0.034
[4]; Balb/c, CSF, other: in situ brain perfusion, with unlabelled ADMA 100 µM, Arginine / Sucrose uptake, CSF, mean, [3H] Arginine + [14C] Sucrose + 100µM un-labelled ADMA, mean
  Kp at 10 min: 0.149
[4]; Balb/c, caudate nucleus, other: in situ brain perfusion, with unlabelled ADMA 10 µM, Arginine / Sucrose uptake, caudate nucleus, mean, [3H] Arginine + [14C] Sucrose + 10 uM ADMA, mean
  Kp at 10 min: 0.0357
[4]; Balb/c, cerebellum, other: in situ brain perfusion, with unlabelled ADMA 0.5 µM, cerebellum: [14C] Sucrose, + 0.5 uM ADMA, mean
  Kp at 10 min: 0.0327
[4]; Balb/c, choroid plexus, other: in situ brain perfusion, with 0.5 µM unlabelled ADMA, choroid plexus: [14C] Sucrose, + 0.5 uM ADMA, mean
  Kp at 10 min: 0.162
[4]; Balb/c, frontal cortex, other: in situ brain perfusion, with unlabelled ADMA 3 µM, Arginine / Sucrose uptake, frontal cortex, [3H] Arginine + [14C] Sucrose + 3 uM ADMA, single mice
  Kp at 10 min: 0.0326
[4]; Balb/c, hypothalamus, other: in situ brain perfusion, with unlabelled ADMA 3 µM, Arginine / Sucrose uptake, hypothalamus, mean, [3H] Arginine + [14C] Sucrose + 3 uM ADMA, mean
  Kp at 10 min: 0.0456
[4]; Balb/c, hypothalamus, other: in situ brain perfusion, with unlabelled ADMA 10 µM, Arginine / Sucrose uptake, hypothalamus, mean, [3H] Arginine + [14C] Sucrose + 10 uM ADMA, mean
  Kp at 10 min: 0.074
[4]; Balb/c, hypothalamus, other: in situ brain perfusion, with unlabelled ADMA 100 µM, Arginine / Sucrose uptake, hypothalamus, mean, [3H] Arginine + [14C] Sucrose + 100µM un-labelled ADMA, mean
  Kp at 10 min: 0.0349
[4]; Balb/c, pellet (cerebral capillary endothelial cells), other: in situ brain perfusion, with unlabelled ADMA 0.5 µM, pellet: [14C] Sucrose, + 0.5 uM ADMA, mean
  Kp at 10 min: 0.00977
[4]; Balb/c, pineal gland, other: in situ brain perfusion, with unlabelled ADMA 10 µM, Arginine / Sucrose uptake, pineal gland, mean, [3H] Arginine + [14C] Sucrose + 10 uM ADMA, mean
  Kp at 10 min: 0.504
[4]; Balb/c, pituitary gland, other: in situ brain perfusion, with 0.5 µM unlabelled ADMA, pituitary gland: [14C] Sucrose, + 0.5 uM ADMA, mean
  Kp at 10 min: 0.13
[4]; Balb/c, pituitary gland, other: in situ brain perfusion, with unlabelled ADMA 3 µM, Arginine / Sucrose uptake, pituitary gland, mean, [3H] Arginine + [14C] Sucrose + 3 uM ADMA, mean
  Kp at 10 min: 0.146
[4]; Balb/c, pons, other: in situ brain perfusion, with unlabelled ADMA 0.5 µM, pons: [14C] Sucrose, + 0.5 uM ADMA, mean
  Kp at 10 min: 0.0597
[4]; Balb/c, pons, other: in situ brain perfusion, with unlabelled ADMA 3 µM, Arginine / Sucrose uptake, pons, mean, [3H] Arginine + [14C] Sucrose + 3 uM ADMA, mean
  Kp at 10 min: 0.0612
[4]; Balb/c, pons, other: in situ brain perfusion, with unlabelled ADMA 10 µM, Arginine / Sucrose uptake, pons, mean, [3H] Arginine + [14C] Sucrose + 10 uM ADMA, mean
  Kp at 10 min: 0.0764
[4]; Balb/c, thalamus, other: in situ brain perfusion, with unlabelled ADMA 10 µM, Arginine / Sucrose uptake, thalamus, mean, [3H] Arginine + [14C] Sucrose + 10 uM ADMA, mean
  Kp at 10 min: 0.0352
